In ChEMBL document CHEMBL1201862, “PubChem BioAssay data set” (2004):
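Where inhibition never reached the appropriate level, the endpoint shown equals the highest concentration tested. Otherwise, values were interpolated linearly from a five-concentration, 48-hour dose response in 96-well plates. GI50 is the concentration that inhibits growth by half.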 The source made the active and inactive calls. No stated cut-off is given here; in the data, active = GI50 up to about 1.1 µM and inactive = higher.

Legend:
Assay in all cases: DTP human tumour cell line panel, 48 h
Hs-578T = test system: Hs-578T
SK-OV-3 = test system: SK-OV-3
SK-MEL-28 = test system: SK-MEL-28
A498 = test system: A498
HCC 2998 = test system: HCC 2998
LOX IMVI = test system: LOX IMVI
NCI/ADR-RES = test system: NCI/ADR-RES
MOLT-4 = test system: MOLT-4
RPMI-8226 = test system: RPMI-8226
IGROV-1 = test system: IGROV-1
OVCAR-8 = test system: OVCAR-8
SK-MEL-5 = test system: SK-MEL-5
A549 = test system: A549
COLO 205 = test system: COLO 205
SNB-19 = test system: SNB-19
BT-549 = test system: BT-549
K562 = test system: K562
SR = test system: SR
NCI-H522 = test system: NCI-H522

Measured: GI50

Cc1cn(C2CC(n3cc(Cn4cc(F)c(=O)[nH]c4=O)nn3)C(CO)O2)c(=O)[nH]c1=O (stereo unspecified)
inactive: Hs-578T > 100 µM | SK-OV-3 > 100 µM | SK-MEL-28 > 100 µM | A498 > 100 µM | HCC 2998 > 100 µM | LOX IMVI > 100 µM | NCI/ADR-RES > 100 µM | MOLT-4 > 100 µM | RPMI-8226 > 100 µM | IGROV-1 > 100 µM | OVCAR-8 > 100 µM | SK-MEL-5 > 100 µM | A549 > 100 µM | COLO 205 > 100 µM | SNB-19 > 100 µM | BT-549 > 100 µM

CCN(CC)CCNC(=O)c1cc2cc(NC(=O)c3cc4cc([N+](=O)[O-])ccc4[nH]3)ccc2[nH]1
inactive: K562 1.61 µM | SK-OV-3 25.9 µM | SK-MEL-28 25.2 µM | A498 27 µM | HCC 2998 11.2 µM | LOX IMVI 3.86 µM | NCI/ADR-RES > 100 µM | SR 7.29 µM | MOLT-4 13 µM | RPMI-8226 1.82 µM | IGROV-1 18.1 µM | OVCAR-8 2.99 µM | SK-MEL-5 3.85 µM | A549 19.3 µM | NCI-H522 3.09 µM | COLO 205 5.68 µM | SNB-19 49.8 µM | BT-549 > 60.8 µM

N#C/C(=C/NC(=S)Nc1ccc(S(N)(=O)=O)cc1)C(N)=O
inactive: Hs-578T > 100 µM | SK-OV-3 > 100 µM | SK-MEL-28 > 100 µM | A498 > 100 µM | HCC 2998 > 100 µM | SR > 100 µM | MOLT-4 > 100 µM | RPMI-8226 > 100 µM | IGROV-1 > 100 µM | OVCAR-8 > 100 µM | SK-MEL-5 > 100 µM | A549 > 100 µM | NCI-H522 > 100 µM | COLO 205 > 100 µM | BT-549 > 100 µM

COC(=O)c1cc(C)ccc1C1CN=NC12Cc1c(C)cc(C)cc1C2=O (stereo unspecified)
inactive: K562 18.4 µM | Hs-578T 18.7 µM | SK-OV-3 17 µM | SK-MEL-28 51.1 µM | HCC 2998 26.5 µM | LOX IMVI 15.1 µM | NCI/ADR-RES 17.7 µM | MOLT-4 15.7 µM | IGROV-1 38.2 µM | OVCAR-8 33.8 µM | SK-MEL-5 17 µM | A549 26.7 µM | NCI-H522 13.6 µM | COLO 205 16.7 µM | SNB-19 31 µM | BT-549 24.7 µM

Cc1nc(O)nc2nc3cc(Cl)cc(Cl)c3c(NC(C)(CO)CO)c12
inactive: K562 > 100 µM | Hs-578T 31.6 µM | SK-OV-3 26.8 µM | SK-MEL-28 > 100 µM | A498 13.6 µM | HCC 2998 > 100 µM | LOX IMVI > 100 µM | NCI/ADR-RES > 100 µM | MOLT-4 > 100 µM | IGROV-1 35.9 µM | OVCAR-8 75.2 µM | SK-MEL-5 > 100 µM | A549 > 100 µM | NCI-H522 > 100 µM | COLO 205 > 100 µM | SNB-19 21.4 µM | BT-549 35.6 µM

CS[C@]12[C@@H]3C(=O)N(C)C(=O)[C@@H]3[C@](C)(C(=O)N1C)C(=O)N2c1ccccc1
inactive: Hs-578T > 100 µM | SK-OV-3 > 100 µM | SK-MEL-28 > 100 µM | A498 > 100 µM | HCC 2998 > 100 µM | LOX IMVI > 100 µM | NCI/ADR-RES > 100 µM | MOLT-4 > 100 µM | RPMI-8226 > 100 µM | IGROV-1 > 100 µM | OVCAR-8 > 100 µM | SK-MEL-5 > 100 µM | A549 > 100 µM | NCI-H522 > 100 µM | COLO 205 > 100 µM | SNB-19 > 100 µM | BT-549 > 100 µM

CC(CC(C)[C@H]1CCC2[C@H]3C(CC(=O)[C@@]21C)[C@@]1(C)CCC(O)C[C@H]1C[C@@H]3O)C(=O)O (stereo partly specified)
inactive: K562 34.7 µM | SK-MEL-28 > 100 µM | A498 > 100 µM | HCC 2998 > 100 µM | LOX IMVI > 100 µM | NCI/ADR-RES > 100 µM | SR 18.3 µM | MOLT-4 46.2 µM | RPMI-8226 41.3 µM | IGROV-1 > 100 µM | OVCAR-8 > 100 µM | A549 > 100 µM | NCI-H522 > 100 µM | COLO 205 > 100 µM | SNB-19 > 100 µM | BT-549 > 100 µM

COc1ccc2nc3cc([N+](=O)[O-])ccc3c(Nc3ccc(S(=O)(=O)N=C(N)N)cc3)c2c1
inactive: K562 18.3 µM | Hs-578T 30.9 µM | SK-OV-3 58.5 µM | SK-MEL-28 > 100 µM | A498 > 100 µM | HCC 2998 19 µM | LOX IMVI 28.4 µM | SR 1.32 µM | MOLT-4 2.72 µM | RPMI-8226 10.5 µM | SK-MEL-5 15.7 µM | A549 47 µM | NCI-H522 18.8 µM | COLO 205 23.1 µM | SNB-19 43.6 µM | BT-549 33.2 µM

OC(CCN1CCCCC1)(c1ccccc1)c1ccccc1 [PRIDINOL]
inactive: K562 > 100 µM | SK-OV-3 > 100 µM | SK-MEL-28 > 100 µM | A498 > 100 µM | LOX IMVI > 100 µM | NCI/ADR-RES > 100 µM | MOLT-4 > 100 µM | RPMI-8226 87.1 µM | IGROV-1 > 100 µM | OVCAR-8 > 100 µM | SK-MEL-5 82.8 µM | A549 > 100 µM | NCI-H522 > 100 µM | COLO 205 > 100 µM | SNB-19 > 100 µM | BT-549 > 100 µM

c1ccc(C2CC(NC3CCCCC3)=Nc3ccccc3N2)cc1 (stereo unspecified)
inactive: K562 19.3 µM | Hs-578T 28.4 µM | SK-OV-3 > 100 µM | SK-MEL-28 45.2 µM | A498 18.8 µM | LOX IMVI 20.4 µM | NCI/ADR-RES > 100 µM | MOLT-4 17.7 µM | RPMI-8226 34 µM | IGROV-1 27.7 µM | OVCAR-8 > 100 µM | SK-MEL-5 18.7 µM | A549 > 100 µM | NCI-H522 22.8 µM | COLO 205 24.2 µM | SNB-19 > 100 µM | BT-549 54.8 µM

O=C1/C(=C/c2ccc(Br)s2)NC(=S)N1c1ccccc1
inactive: K562 56.8 µM | Hs-578T 38.6 µM | SK-OV-3 45.6 µM | SK-MEL-28 > 100 µM | A498 51.1 µM | HCC 2998 > 100 µM | LOX IMVI > 100 µM | SR > 100 µM | MOLT-4 > 100 µM | RPMI-8226 22.5 µM | IGROV-1 69.3 µM | SK-MEL-5 63.2 µM | NCI-H522 46.7 µM | COLO 205 84.9 µM | SNB-19 26.9 µM | BT-549 82.6 µM

C(=N\OCCc1ccccc1)/c1cccnc1
inactive: K562 > 100 µM | Hs-578T > 100 µM | SK-OV-3 > 100 µM | SK-MEL-28 > 100 µM | HCC 2998 > 100 µM | NCI/ADR-RES > 100 µM | MOLT-4 76.7 µM | RPMI-8226 > 100 µM | IGROV-1 > 100 µM | OVCAR-8 > 100 µM | SK-MEL-5 > 100 µM | A549 > 100 µM | NCI-H522 > 100 µM | COLO 205 > 100 µM | SNB-19 > 100 µM | BT-549 > 100 µM
